Source: US20010021697A1, “METHODS AND COMPOSITIONS FOR THE TREATMENT OF MAMMALIAN INFECTIONS EMPLOYING MEDICAMENTS COMPRISING HYMENOPTERA VENOM, PROTEINAGEOUS OR POLYPEPTIDE COMPONENTS THEREOF, OR ANALOGUES OF SUCH PROTEINACEOUS OR POLYPEPTIDE COMPONENTS” (priority 1987, published 2001)
Read-outs that look alike come from different tables or passages of the source.

What was measured:
Assay type in all cases: cell-based
[1] = test system: kanamycin resistant S. aureus; test: Checkerboard titration assay for synergy of honeybee venom with antibiotics (OD660 growth curves)
[2] = test system: E. coli #G1880E
[3] = test system: E. coli G1108E; test: Checkerboard titration synergy assay of melittin analogues with polymyxin B; conditions: polymyxin B 6 units/ml, peptide 5 ug/ml, n = 6

Substance: Polymyxin B
- MEAN A660 ([1]; POLY B = 50, HBV = 0, T8): 0.567
- MEAN A660 ([1]; POLY B = 50, HBV = 0, T12): 0.841
- MEAN A660 ([1]; POLY B = 50, HBV = 0, T24): 0.968
- MEAN A660 ([1]; POLY B = 100, HBV = 0, T0): 0.009
- MEAN A660 ([1]; POLY B = 100, HBV = 0, T2): 0.068
- MEAN A660 ([1]; POLY B = 100, HBV = 0, T4): 0.243
- MEAN A660 ([1]; POLY B = 100, HBV = 0, T6): 0.629
- MEAN A660 ([1]; POLY B = 100, HBV = 0, T8): 0.835
- MEAN A660 ([1]; POLY B = 100, HBV = 0, T12): 1.008
- MEAN A660 ([1]; POLY B = 100, HBV = 0, T24): 1.048
- MEAN A660 ([2]; POLY B = 1.5, HBV = 0, T0): 0.012
- MEAN A660 ([2]; POLY B = 1.5, HBV = 0, T2): 0.040
- MEAN A660 ([2]; POLY B = 1.5, HBV = 0, T4): 0.411
- MEAN A660 ([2]; POLY B = 1.5, HBV = 0, T6): 0.984
- MEAN A660 ([2]; POLY B = 1.5, HBV = 0, T8): 1.020
- MEAN A660 ([2]; POLY B = 1.5, HBV = 0, T12): 1.075
- MEAN A660 ([2]; POLY B = 1.5, HBV = 0, T24): 1.200
- MEAN A660 ([2]; POLY B = 3, HBV = 0, T0): 0.012
- MEAN A660 ([2]; POLY B = 3, HBV = 0, T2): 0.040
- MEAN A660 ([2]; POLY B = 3, HBV = 0, T4): 0.138
- MEAN A660 ([2]; POLY B = 3, HBV = 0, T6): 0.642
- MEAN A660 ([2]; POLY B = 3, HBV = 0, T8): 0.943
- MEAN A660 ([2]; POLY B = 3, HBV = 0, T12): 0.985
- MEAN A660 ([2]; POLY B = 3, HBV = 0, T24): 1.116
- MEAN A660 ([2]; POLY B = 6, HBV = 0, T0): 0.012
- MEAN A660 ([2]; POLY B = 6, HBV = 0, T2): 0.040
- MEAN A660 ([2]; POLY B = 6, HBV = 0, T4): 0.022
- MEAN A660 ([2]; POLY B = 6, HBV = 0, T6): 0.014
- MEAN A660 ([2]; POLY B = 6, HBV = 0, T8): 0.011
- MEAN A660 ([2]; POLY B = 6, HBV = 0, T12): 0.109
- MEAN A660 ([2]; POLY B = 6, HBV = 0, T24): 0.975
- MEAN A660 ([2]; POLY B = 12, HBV = 0, T0): 0.012
- MEAN A660 ([2]; POLY B = 12, HBV = 0, T2): 0.040
- MEAN A660 ([2]; POLY B = 12, HBV = 0, T4): 0.018
- MEAN A660 ([2]; POLY B = 12, HBV = 0, T6): 0.011
- MEAN A660 ([2]; POLY B = 12, HBV = 0, T8): 0.009
- MEAN A660 ([2]; POLY B = 12, HBV = 0, T12): 0.075
- MEAN A660 ([2]; POLY B = 12, HBV = 0, T24): 0.472
- MEAN A660 ([2]; POLY B = 625, HBV = 0, T0): 0.006
- MEAN A660 ([2]; POLY B = 625, HBV = 0, T2): 0.074
- MEAN A660 ([2]; POLY B = 625, HBV = 0, T4): 0.330
- MEAN A660 ([2]; POLY B = 625, HBV = 0, T6): 0.766
- MEAN A660 ([2]; POLY B = 625, HBV = 0, T8): 1.048
- MEAN A660 ([2]; POLY B = 625, HBV = 0, T12): 1.238
- MEAN A660 ([2]; POLY B = 625, HBV = 0, T24): 1.401
- MEAN A660 ([2]; POLY B = 1250, HBV = 0, T0): 0.006
- MEAN A660 ([2]; POLY B = 1250, HBV = 0, T2): 0.074
- MEAN A660 ([2]; POLY B = 1250, HBV = 0, T4): 0.159
- MEAN A660 ([2]; POLY B = 1250, HBV = 0, T6): 0.172
- MEAN A660 ([2]; POLY B = 1250, HBV = 0, T8): 0.259
- MEAN A660 ([2]; POLY B = 1250, HBV = 0, T12): 0.778
- MEAN A660 ([2]; POLY B = 1250, HBV = 0, T24): 1.362
- MEAN A660 ([2]; POLY B = 2500, HBV = 0, T0): 0.006
- MEAN A660 ([2]; POLY B = 2500, HBV = 0, T2): 0.074
- MEAN A660 ([2]; POLY B = 2500, HBV = 0, T4): 0.123
- MEAN A660 ([2]; POLY B = 2500, HBV = 0, T6): 0.109
- MEAN A660 ([2]; POLY B = 2500, HBV = 0, T8): 0.167
- MEAN A660 ([2]; POLY B = 2500, HBV = 0, T12): 0.075
- MEAN A660 ([2]; POLY B = 2500, HBV = 0, T24): 1.037
- Optical densities (OD660), mean ([3]; 0 hours after culture inoculation): .007
- Optical densities (OD660), mean ([3]; 2 hours after culture inoculation): .088
- Optical densities (OD660), mean ([3]; 4 hours after culture inoculation): .470
- Optical densities (OD660), mean ([3]; 6 hours after culture inoculation): .926
- Optical densities (OD660), mean ([3]; 8 hours after culture inoculation): 1.02
- Optical densities (OD660), mean ([3]; 10 hours after culture inoculation): 1.04
- Optical densities (OD660), mean ([3]; 12 hours after culture inoculation): 1.06
